Results on 14 molecules are retold here after patent US11976062B2, “Benzisoxazole compound” (OSAKA UNIVERSITY, priority 2018, dated 2024).

Molecules are shown by their SMILES.

One test has as its target T1, TRPC6 channel (Homo sapiens, UniProt Q9Y210).
T1 construct: expressed in transfected cells; host or cells: HEK293
T1 sequence (Q9Y210 1-931): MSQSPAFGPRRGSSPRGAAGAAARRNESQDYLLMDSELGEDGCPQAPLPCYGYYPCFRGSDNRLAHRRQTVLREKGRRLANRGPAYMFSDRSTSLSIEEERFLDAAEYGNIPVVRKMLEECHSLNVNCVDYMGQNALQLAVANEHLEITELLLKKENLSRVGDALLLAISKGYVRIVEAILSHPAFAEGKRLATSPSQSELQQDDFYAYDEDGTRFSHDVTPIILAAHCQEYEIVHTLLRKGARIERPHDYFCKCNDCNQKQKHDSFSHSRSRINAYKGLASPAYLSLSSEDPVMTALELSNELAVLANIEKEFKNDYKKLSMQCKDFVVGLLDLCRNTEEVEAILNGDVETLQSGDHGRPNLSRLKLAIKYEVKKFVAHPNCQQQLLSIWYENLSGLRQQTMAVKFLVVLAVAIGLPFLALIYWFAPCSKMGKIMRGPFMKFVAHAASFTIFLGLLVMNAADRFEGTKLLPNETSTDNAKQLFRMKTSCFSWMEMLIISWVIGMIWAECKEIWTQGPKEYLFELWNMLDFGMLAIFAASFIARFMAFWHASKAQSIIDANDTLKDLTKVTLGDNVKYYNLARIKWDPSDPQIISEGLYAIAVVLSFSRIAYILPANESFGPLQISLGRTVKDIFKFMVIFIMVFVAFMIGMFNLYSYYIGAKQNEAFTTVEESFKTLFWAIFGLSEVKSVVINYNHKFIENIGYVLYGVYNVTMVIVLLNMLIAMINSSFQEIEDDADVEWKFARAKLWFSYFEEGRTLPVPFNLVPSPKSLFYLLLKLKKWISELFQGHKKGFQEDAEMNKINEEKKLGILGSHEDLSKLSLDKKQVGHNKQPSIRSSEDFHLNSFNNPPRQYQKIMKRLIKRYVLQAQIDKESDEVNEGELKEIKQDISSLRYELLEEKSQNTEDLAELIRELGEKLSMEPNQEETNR
Kind of test: Calcium assay using HEK293 cells transiently expressing TRPC6 channel, carbachol activation (Fura-2). Format: cell-based. The note with it: 10 μM test compound, carbachol. The method, then: A TRPC6 gene was introduced into HEK293 cells (cells derived from human fetal kidney) by lipofection, and the TRPC6 channel was expressed on the cell membrane. Specifically, the plasmid DNA of TRPC6 (pCI-neo; Promega Corporation) was introduced into HEK293 cells using a lipofection reagent, and then cultured at 37° C. for 24 to 48 hours to express the TRPC6 channel on the cell membrane. In the same manner, HEK293 cells into which the TRPC3 gene was introduced were cultured, and the TRPC3 channel was expressed on the cell membrane.
The cultured cells were peeled off with trypsin and seeded on a cover glass again, followed by culturing the cells at 37° C. for 3 hours again. A Fura-2 AM calcium indicator was added to the medium, and the cells were cultured at 37° C. for 30 minutes to allow the cells to incorporate the indicator. For the extracellular solution, a Ca^2+-containing solution and a Ca^2+-free solution were prepared. • Ca^2+-containing solution: 2 mM CaCl2, 132 mM NaCl, 4 mM KCl, 1 mM MgCl2, 5 mM glucose, 5 mM HEPES (pH 7.4) • Ca^2+-free solution: 132 mM NaCl, 4 mM KCl, 1 mM MgCl2, 5 mM glucose, 5 mM HEPES (pH 7.4)
After the cells were added to the Ca^2+-containing solution, the following operation was performed while the fluorescence intensity (510 nm) of Fura-2 was measured at room temperature with an ARGUS CA-20 (Hamamatsu Photonics K.K.) over time. • 0 minutes: TRPC3-expressing cells or TRPC6-expressing cells are placed in a measurement chamber that contains the Ca^2+-containing solution. • After 30 seconds: The Ca^2+-containing solution is replaced with the Ca^2+-free solution. • After 1 minute: A predetermined amount of a test compound is added to the Ca^2+-free solution. • After 3 minutes: Carbachol (100 μM) is added to the Ca^2+-free solution. • After 7 minutes: The Ca^2+-free solution is replaced with the Ca^2+-containing solution that contains a test compound and carbachol […]. • After 15 minutes: Measurement is ended.
Compound 011 was used as the test compound, and the amount of the test compound added was 0.01, 0.1, 0.5, 1.0, 5.0, 10, or 50 μM. For the control, 0.1% DMSO was used in place of the test compound. Carbachol (cch) is a TRPC-channel-activating reagent. Applying carbachol to cells opens the TRPC channel and allows a large amount of Ca^2+ in the extracellular solution to flow into the cells. Fura-2 AM has high cell membrane permeability due to the presence of an AM group (acetoxymethyl group), and is thus easily incorporated into the cells. The AM group is hydrolyzed in the cells to become Fura-2. Thus, Fura-2 can form a chelate with Ca^2+ and is also unlikely to leak out of the cells due to the loss of the AM group.
In the same manner as in Test Example 1, the maximum calcium ion concentration was measured after 7 minutes from the start of measurement (i.e., after replacement with the Ca^2+-containing solution) by using TRPC6-expressing cells prepared in the same manner as in Test Example 1, except that 10 μM of Pyr 4 and 10 μM of compound 011, 031, 041, or 191 (test compound) were used. The average value of calcium ion concentrations up to 30 seconds after the start of measurement (the initial value of calcium ion concentration) was subtracted from the maximum calcium ion concentration, and the calculated value was determined to be the amount of increase in calcium ions. FIG. 3 illustrates the results.
The calcium ion concentration was measured in the same manner as in Test Example 2, except that 10 μM of compound 011, 361, 362(E), 362(Z), 371, 372(Z), 381, or 401 (test compound) was used, and Pyr 4 was not used, thereby determining the amount of increase in calcium ions. Table 2 illustrates the amount of increase in calcium ions for each test compound relative to the amount of increase in calcium ions in the control (DMSO) taken as 100%.
Turning to `C[C@@H]1CN(c2ncc(C(=O)O)cc2Cl)CCN1c1noc2cccc(C(F)(F)F)c12` [Compound 041, (R)-5-chloro-6-(3-methyl-4-(4-(trifluoromethyl)benzo[d]isoxazol-3-yl)piperazin-1-yl) nicotinic acid], the “suppression of TRPC6 channel activation (decrease in calcium ion influx, FIG. 3)” value is “activation of the TRPC6 channel was suppressed”. Same read-out and setting: with `O=C(O)c1cnc(N2CC3CCC(C2)N3c2noc3cccc(C(F)(F)F)c23)c(Cl)c1` [Compound 191, 5-chloro-6-(8-(4-(trifluoromethyl)benzo[d]isoxazol-3-yl)-3,8-diazabicyclo[3,2,1]octan-3-yl)nicotinic acid] the entry was “activation of the TRPC6 channel was suppressed”; with `C[C@H]1CN(c2ncc(C(=O)O)cc2Cl)CCN1c1noc2cccc(C(F)(F)F)c12` [Compound 031, (S)-5-chloro-6-(3-methyl-4-(4-(trifluoromethyl)benzo[d]isoxazol-3-yl)piperazin-1-yl) nicotinic acid], “activation of the TRPC6 channel was suppressed”.

Staying with this test, now noted: 10 μM test compound, carbachol, TRPC6-expressing cells.
Turning to `O/N=C(/c1c(F)cccc1C(F)(F)F)N1CC=C(c2ccccc2Cl)CC1` [Compound 362(Z), (Z)-(4-(2-chlorophenyl)-3,6-dihydropyridin-1(2H)-yl)(2-fluoro-6-(trifluoromethyl)phenyl)methanone oxime], the “amount of increase in calcium ions relative to control (DMSO) taken as 100%” value came out at 54%. Still for that read-out and setting: with `FC(F)(F)c1cccc2onc(N3CC=C(c4ccccc4Cl)CC3)c12` [Compound 361, 3-(4-(2-chlorophenyl)-3,6-dihydropyridin-1(2H)-yl)-4-(trifluoromethyl)benzo[d]isoxazole] the figure was 72%; with `CCOC(=O)c1cnc(N2CCN(/C(=N\O)c3c(F)cccc3C(F)(F)F)CC2=O)c(Cl)c1` [Compound 372(Z), ethyl (Z)-5-chloro-6-(4-((2-fluoro-6-(trifluoromethyl)phenyl)(hydroxyimino)methyl)-2-oxopiperazin-1-yl)nicotinate], 72%. The same measure, in the same setting: with `O=C(O)c1ccc(C2=CCN(c3noc4cccc(C(F)(F)F)c34)CC2)c(Cl)c1` [Compound 401, 3-chloro-4-(1-(4-(trifluoromethyl)benzo[d]isoxazol-3-yl)-1,2,3,6-tetrahydropyridin-4-yl)benzoic acid] the figure was 19%; with `O=C(O)c1cnc(N2CCN(c3noc4cccc(C(F)(F)F)c34)CC2=O)c(Cl)c1` [Compound 381, 5-chloro-6-(2-oxo-4-(4-(trifluoromethyl)benzo[d]isoxazol-3-yl)piperazin-1-yl)nicotinic acid], 57%; with `CCOC(=O)c1cnc(N2CCN(c3noc4cccc(C(F)(F)F)c34)CC2=O)c(Cl)c1` [Compound 371, ethyl 5-chloro-6-(2-oxo-4-(4-(trifluoromethyl)benzo[d]isoxazol-3-yl)piperazin-1-yl) nicotinate], 61%.

As to `O/N=C(\c1c(F)cccc1C(F)(F)F)N1CC=C(c2ccccc2Cl)CC1` [Compound 362(E), E-(4-(2-chlorophenyl)-3,6-dihydropyridin-1(2H)-yl)(2-fluoro-6-(trifluoromethyl)phenyl)methanone oxime], the “amount of increase in calcium ions relative to control (DMSO) taken as 100%” value came to 65%.

The test system of a further test is cardiac fibrosis induced by pressure overload.
Assay: not given
The conditions noted are these: mice, NPL 1 and 2; cited from earlier work.
As to `CCOC(=O)c1cnn(-c2ccc(NC(=O)C(Cl)=C(Cl)Cl)cc2)c1C(F)(F)F` [Pyr3], the “suppression of cardiac fibrosis induced by pressure overload” value was “potently suppresses cardiac fibrosis induced by pressure overload”.

A further test addresses T1, TRPC6 channel. The experiment in a line: Calcium assay using HEK293 cells transiently expressing TRPC6 channel, ATP as activating reagent. Format: cell-based. The conditions noted are these: 10 μM test compound. The method, then: In the same manner as in Test Example 2, the calcium ion concentration was measured, except that 10 μM of Pyr 4 and 10 μM of compound 202(E), 061, or 071 (test compound) were used, and ATP was used as a TRPC channel activating reagent instead of carbachol, thereby determining the amount of increase in calcium ions. FIG. 4 illustrates the results.
With `Clc1ccccc1N1CCN(c2noc3cccc(Cl)c23)CC1` [Compound 061, 4-chloro-3-(4-(2-chlorophenyl)piperazin-1-yl)benzo[d]isoxazole], the “suppression of TRPC6 channel activation (decrease in calcium ion influx, FIG. 4)” value was “activation of the TRPC6 channel was suppressed”. For `Clc1cccnc1N1CCN(c2noc3cccc(Cl)c23)CC1` [Compound 071, 4-chloro-3-(4-(3-chloropyridin-2-yl)piperazin-1-yl)benzo[d]isoxazole], the “suppression of TRPC6 channel activation (decrease in calcium ion influx, FIG. 4)” value is “activation of the TRPC6 channel was suppressed”. In the case of `O/N=C(\c1cccc(Cl)c1Cl)N1CCN(c2ccccc2Cl)CC1` [Compound 202(E), (E)-(4-(2-chlorophenyl)piperazin-1-yl)(2,3-dichlorophenyl)methanone oxime], the “suppression of TRPC6 channel activation (decrease in calcium ion influx, FIG. 4)” value is given as “activation of the TRPC6 channel was suppressed”.
